Target: T1, NAD-dependent protein deacetylase sirtuin-1 (Homo sapiens) (UniProt Q96EB6)
T1 sequence (whole entry): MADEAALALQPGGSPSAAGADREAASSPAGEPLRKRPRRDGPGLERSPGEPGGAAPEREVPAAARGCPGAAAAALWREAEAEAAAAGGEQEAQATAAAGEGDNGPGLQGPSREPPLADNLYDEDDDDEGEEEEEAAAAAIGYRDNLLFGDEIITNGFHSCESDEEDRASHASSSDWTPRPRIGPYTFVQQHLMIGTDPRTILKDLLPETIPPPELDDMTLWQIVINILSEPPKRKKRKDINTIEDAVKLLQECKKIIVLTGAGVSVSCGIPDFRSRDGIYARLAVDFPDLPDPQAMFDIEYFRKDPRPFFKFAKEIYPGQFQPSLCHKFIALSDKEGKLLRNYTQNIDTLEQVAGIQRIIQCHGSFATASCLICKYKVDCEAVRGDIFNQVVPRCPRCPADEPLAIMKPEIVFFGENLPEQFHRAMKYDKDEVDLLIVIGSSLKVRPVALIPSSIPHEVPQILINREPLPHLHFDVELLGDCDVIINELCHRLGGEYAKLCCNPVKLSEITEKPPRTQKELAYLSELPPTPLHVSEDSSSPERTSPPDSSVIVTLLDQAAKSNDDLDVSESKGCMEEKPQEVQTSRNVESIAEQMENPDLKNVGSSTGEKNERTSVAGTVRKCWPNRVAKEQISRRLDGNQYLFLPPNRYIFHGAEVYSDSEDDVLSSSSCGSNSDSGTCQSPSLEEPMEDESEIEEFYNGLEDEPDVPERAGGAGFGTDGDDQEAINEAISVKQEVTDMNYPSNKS
Conditions: Sf9

ΔTm	SMILES
10 °C	NC(=O)[C@@H]1CCCc2c1[nH]c1ccc(Cl)cc21
10 °C	NC(=O)[C@@H]1CCCCc2c1[nH]c1ccc(Cl)cc21
